Source: patent publication US11109593B2, “Isoxazolin-5-one derivative and herbicide containing same as active ingredient” (HOKKO CHEMICAL INDUSTRY CO., LTD., priority 2017, dated 2021)

Key:
Type in all cases: in vivo
Echinochloa crus-galli [1] = test: Test Example 1: herbicidal effect test by treatment of rice paddy soil (immediately after seeding)
Experimental: (§1) Herbicidal Effect Test by Treatment of Rice Paddy Soil
(§2) Wagner pots with an area of 1/10000 ares were filled with a paddy soil, and after adding water, a compound fertilizer (N:P:K=17:17:17) was added, followed by soil puddling. Then, Echinochloa crus-galli, broad leaf weeds (Lindernia pyxidaria and Monochoria vaginalis) and Scirpus juncoides, 30 seeds each, were sown in a depth of 0 to 1 cm. Water was poured immediately after seeding, and the water depth was kept at about 3 cm. The subsequent management was conducted in a glass greenhouse. Immediately after that, emulsions prepared using the compounds in Table 3 below according to Formulation Example 5 were diluted with water, and a certain amount of the water-diluted agent solutions were dropped. The converted amount of the applied active ingredient corresponded to 120 g per 10 ares.
(§3) This test was conducted in a double system per one agent solution concentration area, and the herbicidal rates (%) were determined by the following equation (Math. 1) on 14 days after the treatment with the agents. Herbicidal Rate (%)={1-(Average Dry Weight (g) of Plant of Treated Area)/(Average Dry Weight (g) of Plant of Untreated Area)}×100 [Math. 1]
(§4) The compound numbers in Table 3 are the same as those in Table 1 and Table 2 above.

Scirpus juncoides [2] = test: as above
Experimental: as §1, §2, §3, §4

[3] = system: broad leaf weeds (Lindernia pyxidaria and Monochoria vaginalis); test: as above
Experimental: as §1, §2, §3, §4

Echinochloa crus-galli [4] = test: Test Example 2: herbicidal effect test by treatment during growing period in paddy rice cultivation (seven days after seeding); conditions: for Herbicidal rate (%) Echinochloa crus-galli: 120 g/10a active ingredient, assessed 14 days after treatment, dry weight vs untreated area
Experimental: as §3
(§5) Herbicidal Effect Test by Treatment During Growing Period in Paddy Rice Cultivation
as §2, with “was mixed,” for “was added,”, “greenhouse. Emulsions” for “greenhouse. Immediately after that, emulsions”, “Table 4” for “Table 3”, “with water seven days after seeding,” for “with water,”, “ares. The test was conducted in a double system per one agent solution concentration area, and the herbicidal rates (%) were determined by the equation (Math. 1) on 14 days after the treatment with the agents. […] The compound numbers in Table 4 are the same as those in Table 1 and Table 2 above.” for “ares.”

Scirpus juncoides [5] = test: as above; conditions: for Herbicidal rate (%) Scirpus juncoides: 120 g/10a active ingredient, assessed 14 days after treatment, dry weight vs untreated area
Experimental: as §3, §5
as §2, with “was mixed,” for “was added,”, “greenhouse. Emulsions” for “greenhouse. Immediately after that, emulsions”, “Table 4” for “Table 3”, “with water seven days after seeding,” for “with water,”, “ares. The test was conducted in a double system per one agent solution concentration area, and the herbicidal rates (%) were determined by the equation (Math. 1) on 14 days after the treatment with the agents. […] The compound numbers in Table 4 are the same as those in Table 1 and Table 2 above.” for “ares.”

[6] = system: broad leaf weeds (Lindernia pyxidaria and Monochoria vaginalis); test: as above; conditions: for Herbicidal rate (%) Lindernia pyxidaria / Herbicidal rate (%) Monochoria vaginalis: 120 g/10a active ingredient, assessed 14 days after treatment, dry weight vs untreated area
Experimental: as §3, §5
as §2, with “was mixed,” for “was added,”, “greenhouse. Emulsions” for “greenhouse. Immediately after that, emulsions”, “Table 4” for “Table 3”, “with water seven days after seeding,” for “with water,”, “ares. The test was conducted in a double system per one agent solution concentration area, and the herbicidal rates (%) were determined by the equation (Math. 1) on 14 days after the treatment with the agents. […] The compound numbers in Table 4 are the same as those in Table 1 and Table 2 above.” for “ares.”

[7] = 120 g/10a active ingredient, dry weight vs untreated area, 14 days after treatment
[8] = Lindernia pyxidaria, 120 g/10a active ingredient, dry weight vs untreated area, 14 days after treatment
[9] = Monochoria vaginalis, 120 g/10a active ingredient, dry weight vs untreated area, 14 days after treatment
[10] = 120 g/10a active ingredient, 14 days after treatment, dry weight vs untreated area
[11] = 120 g/10a, rated 14 days after treatment, paddy soil pots

Row | SMILES | Herbicidal rate (%) Echinochloa crus-galli (Echinochloa crus-galli [1]; [7]) | Herbicidal rate (%) Scirpus juncoides (Scirpus juncoides [2]; [7]) | Herbicidal rate (%) Lindernia pyxidaria [3, 8] | Herbicidal rate (%) Monochoria vaginalis [3, 9] | Herbicidal rate (%) Echinochloa crus-galli (Echinochloa crus-galli [4]) | Herbicidal rate (%) Scirpus juncoides (Scirpus juncoides [5]) | Herbicidal rate (%) Lindernia pyxidaria ([6]; Lindernia pyxidaria) | Herbicidal rate (%) Monochoria vaginalis ([6]; Monochoria vaginalis) | Herbicidal rate (%) Echinochloa crus-galli (Echinochloa crus-galli [1]; [10]) | Herbicidal rate (%) Scirpus juncoides (Scirpus juncoides [2]; [10]) | Herbicidal rate (%) Lindernia pyxidaria ([3]; Lindernia pyxidaria, 120 g/10a active ingredient, 14 days after treatment, dry weight vs untreated area) | Herbicidal rate (%) Monochoria vaginalis ([3]; Monochoria vaginalis, 120 g/10a active ingredient, 14 days after treatment, dry weight vs untreated area) | herbicidal rate, Echinochloa crus-galli (Echinochloa crus-galli [4]; [11]) | herbicidal rate, Scirpus juncoides (Scirpus juncoides [5]; [11]) | herbicidal rate, Lindernia pyxidaria ([6]; Lindernia pyxidaria, 120 g/10a, rated 14 days after treatment, paddy soil pots) | herbicidal rate, Monochoria vaginalis ([6]; Monochoria vaginalis, 120 g/10a, rated 14 days after treatment, paddy soil pots)
1 | Cc1c(Cc2ccccc2NS(=O)(=O)C(F)(F)F)c(=O)on1C(C)c1cccc(Cl)c1 (stereo not shown) [Compound 1-206] | 90% | 90% | 100% | 100% | 60% | 80% | 80% | 90% | – | – | – | – | – | – | – | –
2 | Cc1c(Cc2ccccc2N(S(=O)(=O)C(F)(F)F)S(=O)(=O)C(F)(F)F)c(=O)on1CCOCc1ccccc1 [Compound 1-1059] | – | – | – | – | – | – | – | – | 100% | 80% | 80% | 90% | 90% | 70% | 40% | 70%
3 | Cc1c(Cc2c(Cl)cccc2N(S(=O)(=O)C(F)(F)F)S(=O)(=O)C(F)(F)F)c(=O)on1C(C)C [Compound 1-47] | 40% | 80% | 70% | 70% | 40% | 70% | 40% | 40% | – | – | – | – | – | – | – | –
4 | Cc1c(Cc2ccccc2N(S(=O)(=O)C(F)(F)F)S(=O)(=O)C(F)(F)F)c(=O)on1Cc1ccc(F)cc1Cl [Compound 1-1028] | 80% | 40% | 80% | 90% | 0% | 0% | 40% | 40% | – | – | – | – | – | – | – | –
5 | Cc1c(Cc2ccccc2NS(=O)(=O)C(F)(F)F)c(=O)on1Cc1ccc(F)c(F)c1 [Compound 1-200] | 90% | 90% | 100% | 100% | 60% | 80% | 90% | 90% | – | – | – | – | – | – | – | –
6 | Cc1c(Cc2ccccc2NS(=O)(=O)C(F)(F)F)c(=O)on1Cc1ccc(C(F)(F)F)cc1 [Compound 1-194] | 80% | 80% | 100% | 80% | 40% | 60% | 60% | 60% | – | – | – | – | – | – | – | –
7 | Cc1c(Cc2ccccc2N(C(=O)OCC(C)C)S(=O)(=O)C(F)(F)F)c(=O)on1CC(C)C [Compound 1-671] | 90% | 90% | 90% | 90% | 90% | 90% | 60% | 90% | – | – | – | – | – | – | – | –
8 | C=CCn1oc(=O)c(Cc2ccccc2NS(=O)(=O)C(F)(F)F)c1C [Compound 1-135] | 90% | 90% | 90% | 60% | 80% | 90% | 40% | 60% | – | – | – | – | – | – | – | –
9 | Cc1ccc(Cn2oc(=O)c(Cc3ccccc3N(S(=O)(=O)C(F)(F)F)S(=O)(=O)C(F)(F)F)c2C)cc1 [Compound 1-1018] | 90% | 90% | 100% | 90% | 40% | 80% | 80% | 80% | – | – | – | – | – | – | – | –
10 | Cc1c(Cc2ccccc2N(S(=O)(=O)C(F)(F)F)S(=O)(=O)C(F)(F)F)c(=O)on1Cc1ccc(F)c(F)c1 [Compound 1-1027] | 90% | 80% | 100% | 100% | 40% | 40% | 40% | 40% | – | – | – | – | – | – | – | –
11 | Cc1c(Cc2ccccc2N(S(=O)(=O)C(F)(F)F)S(=O)(=O)C(F)(F)F)c(=O)on1CCc1ccc(F)cc1 [Compound 1-1044] | 90% | 40% | 60% | 40% | 70% | 70% | 40% | 40% | – | – | – | – | – | – | – | –
12 | CCOC(=O)N(c1ccccc1Cc1c(C)n(CC(C)C)oc1=O)S(=O)(=O)C(F)(F)F [Compound 1-608] | 70% | 90% | 70% | 80% | 90% | 80% | 60% | 80% | – | – | – | – | – | – | – | –
13 | Cc1c(Cc2ccccc2NS(=O)(=O)C(F)(F)F)c(=O)on1Cc1ccc(Br)cc1 [Compound 1-187] | 90% | 80% | 90% | 90% | 40% | 70% | 70% | 80% | – | – | – | – | – | – | – | –
14 | Cc1c(Cc2ccccc2N(S(=O)(=O)C(F)(F)F)S(=O)(=O)C(F)(F)F)c(=O)on1Cc1ccc(C#N)cc1 [Compound 1-1017] | 40% | 90% | 60% | 90% | 0% | 80% | 80% | 80% | – | – | – | – | – | – | – | –
15 | Cc1c(Cc2ccccc2N(S(=O)(=O)C(F)(F)F)S(=O)(=O)C(F)(F)F)c(=O)on1Cc1ccc(C(F)(F)F)cc1 [Compound 1-1021] | 40% | 60% | 40% | 40% | – | – | – | – | – | – | – | – | – | – | – | –
16 | Cc1c(Cc2ccccc2N(S(=O)(=O)C(F)(F)F)S(=O)(=O)C(F)(F)F)c(=O)on1Cc1cccc(F)c1 [Compound 1-1013] | 40% | 90% | 90% | 90% | – | – | – | – | – | – | – | – | – | – | – | –
17 | Cc1c(Cc2ccccc2N(S(=O)(=O)C(F)(F)F)S(=O)(=O)C(F)(F)F)c(=O)on1Cc1ccc(F)c(Cl)c1 [Compound 1-1029] | 60% | 60% | 60% | 60% | – | – | – | – | – | – | – | – | – | – | – | –
